Measurements published in paper PMC9917560, “Design, Synthesis and Antimicrobial Evaluation of New N-(1-Hydroxy-1,3-dihydrobenzo[c][1,2]oxaborol-6-yl)(hetero)aryl-2-carboxamides as Potential Inhibitors of Mycobacterial Leucyl-tRNA Synthetase” (International Journal of Molecular Sciences, 2023).
In brackets after ≈: the same amount, converted by molar mass. Like-named read-outs stand apart in the source and are kept apart here.

Assays:
[1] = system: Aspergillus fumigatus ATCC 204305; assay: Antifungal microdilution broth (EUCAST); assay type: cell-based; conditions: Aspergillus fumigatus, read-out: MIC Aspergillus fumigatus
[2] = system: Candida albicans CCM 8320 (ATCC 24433); assay: Antifungal microdilution broth (EUCAST); assay type: cell-based; conditions: Candida albicans, read-out: MIC Candida albicans
[3] = system: Mycolicibacterium smegmatis DSM 43,465 (ATCC 607); assay: Antimycobacterial microdilution (resazurin) vs M. smegmatis; assay type: cell-based; conditions: Middlebrook 7H9, resazurin, read-out: MIC M. smeg.
[4] = system: Candida parapsilosis CCM 8260 (ATCC 22019); assay: Antifungal microdilution broth (EUCAST); assay type: cell-based; conditions: Lodderomyces parapsilosis, read-out: MIC Candida parapsilosis
[5] = system: Escherichia coli CCM 3954 (ATCC 25922); assay: Antibacterial microdilution broth (EUCAST); assay type: cell-based; conditions: Escherichia coli, read-out: MIC Escherichia coli
[6] = system: Mycobacterium tuberculosis H37Rv CNCTC My 331/88 (ATCC 27294); assay: Microplate Alamar Blue assay vs Mtb H37Rv; assay type: cell-based; conditions: Mycobacterium tuberculosis, pH 6.6, MABA, Middlebrook 7H9 pH 6.6, recalculated from µg/mL; read-out: MIC Mtb H37Rv
[7] = system: Lichtheimia corymbifera CCM 8077; assay: Antifungal microdilution broth (EUCAST); assay type: cell-based; conditions: Lichtheimia corymbifera, read-out: MIC Lichtheimia corymbifera
[8] = system: methicillin-resistant Staphylococcus aureus subsp. aureus (MRSA) CCM 4750 (ATCC 43300); assay: microbe, parasite or virus in culture; assay type: cell-based; conditions: read-out: MIC Methicillin-resistant Staphylococcus aureus subsp. aureus
[9] = system: Mycobacterium kansasii DSM 44,162 (ATCC 12478); assay: Antimycobacterial microdilution (resazurin) vs M. kansasii; assay type: cell-based; conditions: Middlebrook 7H9, resazurin, read-out: MIC M. kansasii
[10] = system: Mycolicibacterium aurum DSM 43,999 (ATCC 23366); assay: Antimycobacterial microdilution (resazurin) vs M. aurum; assay type: cell-based; conditions: Middlebrook 7H9, resazurin, read-out: MIC M. aurum
[11] = system: Pseudomonas aeruginosa CCM 3955 (ATCC 27853); assay: Antibacterial microdilution broth (EUCAST); assay type: cell-based; conditions: read-out: MIC Pseudomonas aeruginosa
[12] = system: Staphylococcus aureus subsp. aureus CCM 4223 (ATCC 29213); assay: Antibacterial microdilution broth (EUCAST); assay type: cell-based; conditions: read-out: MIC Staphylococcus aureus subsp. aureus
[13] = system: Staphylococcus epidermidis CCM 4418 (ATCC 12228); assay: Antibacterial microdilution broth (EUCAST); assay type: cell-based; conditions: read-out: MIC Staphylococcus epidermidis
[14] = system: Candida krusei CCM 8271 (ATCC 6258); assay: Antifungal microdilution broth (EUCAST); assay type: cell-based; conditions: Pichia kudriavzevii, read-out: MIC Candida krusei
[15] = system: Enterococcus faecalis CCM 4224 (ATCC 29212); assay: Antibacterial microdilution broth (EUCAST); assay type: cell-based; conditions: read-out: MIC Enterococcus faecalis
[16] = system: Candida tropicalis CCM 8264 (ATCC 750); assay: Antifungal microdilution broth (EUCAST); assay type: cell-based; conditions: read-out: MIC Candida tropicalis
[17] = system: Acinetobacter baumannii DSM 30007 (ATCC 19606); assay: Antibacterial microdilution broth (EUCAST); assay type: cell-based; conditions: read-out: MIC Acinetobacter baumannii
[18] = system: Klebsiella pneumoniae CCM 4415 (ATCC 10031); assay: Antibacterial microdilution broth (EUCAST); assay type: cell-based; conditions: Klebsiella pneumoniae, read-out: MIC Klebsiella pneumoniae
[19] = system: Trichophyton interdigitale CCM 8377 (ATCC 9533); assay: Antifungal microdilution broth (EUCAST); assay type: cell-based; conditions: Trichophyton interdigitale, read-out: MIC Trichophyton interdigitale
[20] = system: Mycobacterium tuberculosis H37Ra ITM-M006710 (ATCC 9431); assay: Antimycobacterial microdilution (resazurin) vs Mtb H37Ra; assay type: cell-based; conditions: Middlebrook 7H9, resazurin, recalculated from µg/mL, read-out: MIC Mtb H37Ra
[21] = system: HepG2 cell line; assay: Cytotoxicity screening, CellTiter 96 assay; conditions: for IC50: Homo sapiens, HepG2, 24 h, read-out: IC50 HepG2
[22] = system: Aspergillus flavus CCM 8363; assay: Antifungal microdilution broth (EUCAST); assay type: cell-based; conditions: Aspergillus flavus, read-out: MIC Aspergillus flavus
[23] = system: Mycobacterium avium DSM 44,156 (ATCC 25291); assay: Antimycobacterial microdilution (resazurin) vs M. avium; assay type: cell-based; conditions: Mycobacterium avium, Middlebrook 7H9, resazurin; read-out: MIC M. avium

SMILES: O=C(Nc1ccc2c(c1)B(O)OC2)c1ccc(C(F)(F)F)cn1 [Compound 11, N-(1-hydroxy-1,3-dihydrobenzo[c][1,2]oxaborol-6-yl)-5-(trifluoromethyl)picolinamide]
- MIC ([1]; ATCC204305, 24 h): > 125 µM
- MIC ([1]; ATCC204305, 48 h): > 125 µM
- MIC ([2]; 24 h): > 125 µM
- MIC ([2]; 48 h): > 125 µM
- MIC [3]: 24.2 µM (≈ 7.81 µg/mL)
- MIC ([4]; 24 h): > 125 µM
- MIC ([4]; 48 h): > 125 µM
- MIC ([5]; 24 h): > 125 µM
- MIC ([5]; 48 h): > 125 µM
- MIC [6]: 9.72 µM (≈ 3.13 µg/mL)
- MIC ([7]; CCM8077, 24 h): > 125 µM
- MIC ([7]; CCM8077, 48 h): > 125 µM
- MIC ([8]; 24 h): > 125 µM
- MIC ([8]; 48 h): > 125 µM
- MIC [9]: 12.1 µM (≈ 3.91 µg/mL)
- MIC [10]: 24.2 µM (≈ 7.81 µg/mL)
- melting point: 188.1 to 188.9 °C
- MIC ([11]; 24 h): > 125 µM
- MIC ([11]; 48 h): > 125 µM
- MIC ([12]; 24 h): > 125 µM
- MIC ([12]; 48 h): > 125 µM
- MIC ([13]; 24 h): > 125 µM
- MIC ([13]; 48 h): > 125 µM
- MIC ([14]; 24 h): > 125 µM
- MIC ([14]; 48 h): > 125 µM
- MIC ([15]; 24 h): > 125 µM
- MIC ([15]; 48 h): > 125 µM
- MIC ([16]; 24 h): > 125 µM
- MIC ([16]; 48 h): > 125 µM
- MIC ([17]; 24 h): > 125 µM
- MIC ([17]; 48 h): > 125 µM
- MIC ([18]; 24 h): > 125 µM
- MIC ([18]; 48 h): > 125 µM
- MIC ([19]; 72 h): > 125 µM
- MIC ([19]; 120 h): > 125 µM
- MIC [20]: 97 µM (≈ 31.2 µg/mL)
- IC50 [21]: > 100 µM
- toxicity to HepG2 up to highest tested concentration ([21]; tested up to 500 µM (2, 3), 250 µM (12, 17), 100 µM (6, 7, 11) because of solubility): non-toxic
- MIC ([22]; CCM8363, 24 h): > 125 µM
- MIC ([22]; CCM8363, 48 h): > 125 µM
- MIC [23]: 97 µM (≈ 31.2 µg/mL)

SMILES: O=C(Nc1ccc2c(c1)B(O)OC2)c1ccc(Cl)cc1 [Compound 14, 4-chloro-N-(1-hydroxy-1,3-dihydrobenzo[c][1,2]oxaborol-6-yl)benzamide]
- MIC ([1]; ATCC204305, 24h incubation): > 125 µM
- MIC ([1]; ATCC204305, 48h incubation): > 125 µM
- MIC ([2]; 24h incubation): > 125 µM
- MIC ([2]; 48h incubation): > 125 µM
- MIC [3]: 217 µM (≈ 62.5 µg/mL)
- MIC ([4]; 24h incubation): > 125 µM
- MIC ([4]; 48h incubation): > 125 µM
- MIC ([5]; 24h incubation): > 500 µM
- MIC ([5]; 48h incubation): > 500 µM
- MIC [6]: 43.5 µM (≈ 12.5 µg/mL)
- MIC ([7]; CCM8077, 24h incubation): > 125 µM
- MIC ([7]; CCM8077, 48h incubation): > 125 µM
- MIC ([8]; 24 h): > 500 µM
- MIC ([8]; 48 h): > 500 µM
- MIC [9]: 217 µM (≈ 62.5 µg/mL)
- MIC [10]: 13.6 µM (≈ 3.91 µg/mL)
- melting point: 225.5 to 228.1 °C
- MIC ([11]; 24h incubation): > 500 µM
- MIC ([11]; 48h incubation): > 500 µM
- MIC ([12]; 24h incubation): > 500 µM
- MIC ([12]; 48h incubation): > 500 µM
- MIC ([13]; 24h incubation): > 500 µM
- MIC ([13]; 48h incubation): > 500 µM
- MIC ([14]; 24h incubation): > 125 µM
- MIC ([14]; 48h incubation): > 125 µM
- MIC ([15]; 24h incubation): > 500 µM
- MIC ([15]; 48h incubation): > 500 µM
- MIC ([16]; 24h incubation): > 125 µM
- MIC ([16]; 48h incubation): > 125 µM
- MIC ([17]; 24h incubation): > 500 µM
- MIC ([17]; 48h incubation): > 500 µM
- MIC ([18]; 24h incubation): > 500 µM
- MIC ([18]; 48h incubation): > 500 µM
- MIC ([19]; 72h incubation): > 125 µM
- MIC ([19]; 120h incubation): > 125 µM
- MIC [20]: 435 µM (≈ 125 µg/mL)
- IC50 [21]: > 1000 µM
- MIC ([22]; CCM8363, 24h incubation): > 125 µM
- MIC ([22]; CCM8363, 48h incubation): > 125 µM
- MIC [23]: 435 µM (≈ 125 µg/mL)
